# Patent EP2532368A1, “"Composition for oral delivery of biologically-active substances"” (Peluso, Gianfranco, priority 2011, dated 2012)
# Tested on: DSS-induced colitis
# Assay: DSS-induced colitis in mice
# Assay type: in vivo, C57BL/6 mice
# Settings: 3% DSS in water, daily gavage for 7 days
smiles,measurement,setting,value
"Nc1ccc(O)c(C(=O)O)c1 [5-ASA, 5-Aminosalicylic acid]",weight loss,,does not reduce the severity of weight loss
same,Intestinal myeloperoxidase (MPO) activity,colon,has no effect on the basal MPO levels
